Where “and” joins values, the source holds several entries; their conditions need not be identical. Equal values may be shown once. ± gives the uncertainty stated by the source.
Test: xn = mol fraction of the nth substance listed

CS(C)=O + O
viscosity (303.15 K, 101 kPa, x1 = 0.01869): 0.91 ± 0.27 mPa·s | viscosity (303.15 K, 101 kPa, x1 = 0.0406): 1.05 ± 0.32 mPa·s | viscosity (303.15 K, 101 kPa, x1 = 0.05): 1.176 ± 0.011 mPa·s | viscosity (303.15 K, 101 kPa, x1 = 0.15): 2.183 ± 0.021 mPa·s | viscosity (303.15 K, 101 kPa, x1 = 0.25): 2.978 ± 0.034 mPa·s | viscosity (303.15 K, 101 kPa, x1 = 0.35): 3.26 ± 0.043 mPa·s | viscosity (303.15 K, 101 kPa, x1 = 0.48): 2.884 ± 0.045 mPa·s | viscosity (303.15 K, 101 kPa, x1 = 0.73): 2.115 ± 0.044 mPa·s | viscosity (303.15 K, 101.3 kPa, x1 = 0.012): 0.88 ± 0.023 mPa·s | viscosity (303.15 K, 101.3 kPa, x2 = 0.1906): 2.071 ± 0.054 mPa·s | viscosity (303.15 K, 101.3 kPa, x2 = 0.3252): 2.348 ± 0.061 mPa·s | viscosity (303.15 K, 101.3 kPa, x2 = 0.5203): 2.958 ± 0.077 mPa·s | viscosity (303.15 K, 101.3 kPa, x2 = 0.6501): 3.218 ± 0.084 mPa·s | viscosity (303.15 K, 101.3 kPa, x2 = 0.743): 2.942 ± 0.077 mPa·s | viscosity (303.15 K, 101.3 kPa, x2 = 0.8183): 2.402 ± 0.063 mPa·s | viscosity (303.15 K, 101.3 kPa, x2 = 0.8668): 1.941 ± 0.051 mPa·s | viscosity (303.15 K, 101.3 kPa, x2 = 0.9101): 1.536 ± 0.04 mPa·s | viscosity (303.15 K, 101.3 kPa, x2 = 0.9751): 0.981 ± 0.026 mPa·s | viscosity (308.15 K, 101 kPa, x1 = 0.05): 1.065 ± 0.01 mPa·s | viscosity (308.15 K, 101 kPa, x1 = 0.15): 1.942 ± 0.02 mPa·s | viscosity (308.15 K, 101 kPa, x1 = 0.25): 2.606 ± 0.03 mPa·s | viscosity (308.15 K, 101 kPa, x1 = 0.35): 2.84 ± 0.037 mPa·s | viscosity (308.15 K, 101 kPa, x1 = 0.48): 2.512 ± 0.039 mPa·s and 2.733 ± 0.081 mPa·s | viscosity (308.15 K, 101 kPa, x1 = 0.73): 1.86 ± 0.038 mPa·s | viscosity (308.15 K, 101.3 kPa, x1 = 0.012): 0.792 ± 0.021 mPa·s | viscosity (308.15 K, 101.3 kPa, x2 = 0.1906): 1.876 ± 0.049 mPa·s | viscosity (308.15 K, 101.3 kPa, x2 = 0.3252): 2.109 ± 0.055 mPa·s | viscosity (308.15 K, 101.3 kPa, x2 = 0.5203): 2.607 ± 0.068 mPa·s | viscosity (308.15 K, 101.3 kPa, x2 = 0.6501): 2.802 ± 0.073 mPa·s | viscosity (308.15 K, 101.3 kPa, x2 = 0.743): 2.558 ± 0.067 mPa·s | viscosity (308.15 K, 101.3 kPa, x2 = 0.8183): 2.097 ± 0.055 mPa·s | viscosity (308.15 K, 101.3 kPa, x2 = 0.8668): 1.708 ± 0.044 mPa·s | viscosity (308.15 K, 101.3 kPa, x2 = 0.9101): 1.36 ± 0.035 mPa·s | viscosity (308.15 K, 101.3 kPa, x2 = 0.9455): 1.091 ± 0.028 mPa·s | viscosity (308.15 K, 101.3 kPa, x2 = 0.9751): 0.879 ± 0.023 mPa·s | viscosity (313.15 K, 101 kPa, x1 = 0.01): 0.72 ± 0.02 mPa·s | viscosity (313.15 K, 101 kPa, x1 = 0.01869): 0.73 ± 0.22 mPa·s | viscosity (313.15 K, 101 kPa, x1 = 0.025): 0.79 ± 0.02 mPa·s | viscosity (313.15 K, 101 kPa, x1 = 0.039): 0.87 ± 0.02 mPa·s | viscosity (313.15 K, 101 kPa, x1 = 0.0406): 0.85 ± 0.26 mPa·s | viscosity (313.15 K, 101 kPa, x1 = 0.05): 0.981 ± 0.008 mPa·s | viscosity (313.15 K, 101 kPa, x1 = 0.055): 0.96 ± 0.03 mPa·s | viscosity (313.15 K, 101 kPa, x1 = 0.071): 1.07 ± 0.03 mPa·s | viscosity (313.15 K, 101 kPa, x1 = 0.09): 1.19 ± 0.03 mPa·s | viscosity (313.15 K, 101 kPa, x1 = 0.11): 1.33 ± 0.03 mPa·s | viscosity (313.15 K, 101 kPa, x1 = 0.13): 1.5 ± 0.04 mPa·s | viscosity (313.15 K, 101 kPa, x1 = 0.15): 1.704 ± 0.019 mPa·s | viscosity (313.15 K, 101 kPa, x1 = 0.16): 1.69 ± 0.04 mPa·s | viscosity (313.15 K, 101 kPa, x1 = 0.19): 1.89 ± 0.05 mPa·s | viscosity (313.15 K, 101 kPa, x1 = 0.25): 2.296 ± 0.029 mPa·s | viscosity (313.15 K, 101 kPa, x1 = 0.26): 2.24 ± 0.06 mPa·s | viscosity (313.15 K, 101 kPa, x1 = 0.3): 2.39 ± 0.06 mPa·s | viscosity (313.15 K, 101 kPa, x1 = 0.35): 2.521 ± 0.036 mPa·s | viscosity (313.15 K, 101 kPa, x1 = 0.41): 2.48 ± 0.06 mPa·s | viscosity (313.15 K, 101 kPa, x1 = 0.48): 2.22 ± 0.034 mPa·s and 2.34 ± 0.06 mPa·s | viscosity (313.15 K, 101 kPa, x1 = 0.57): 2.16 ± 0.06 mPa·s | viscosity (313.15 K, 101 kPa, x1 = 0.67): 1.95 ± 0.05 mPa·s | viscosity (313.15 K, 101 kPa, x1 = 0.73): 1.72 ± 0.035 mPa·s | viscosity (313.15 K, 101 kPa, x1 = 0.81): 1.73 ± 0.04 mPa·s | viscosity (313.15 K, 101.3 kPa, x1 = 0.012): 0.718 ± 0.019 mPa·s | viscosity (313.15 K, 101.3 kPa, x2 = 0.1906): 1.709 ± 0.045 mPa·s | viscosity (313.15 K, 101.3 kPa, x2 = 0.3252): 1.905 ± 0.05 mPa·s | viscosity (313.15 K, 101.3 kPa, x2 = 0.5203): 2.313 ± 0.06 mPa·s | viscosity (313.15 K, 101.3 kPa, x2 = 0.6501): 2.459 ± 0.064 mPa·s | viscosity (313.15 K, 101.3 kPa, x2 = 0.743): 2.24 ± 0.058 mPa·s | viscosity (313.15 K, 101.3 kPa, x2 = 0.8183): 1.848 ± 0.048 mPa·s | viscosity (313.15 K, 101.3 kPa, x2 = 0.8668): 1.513 ± 0.039 mPa·s | viscosity (313.15 K, 101.3 kPa, x2 = 0.9101): 1.214 ± 0.032 mPa·s | viscosity (313.15 K, 101.3 kPa, x2 = 0.9455): 0.978 ± 0.025 mPa·s | viscosity (313.15 K, 101.3 kPa, x2 = 0.9751): 0.794 ± 0.021 mPa·s | viscosity (318.15 K, 101 kPa, x1 = 0.055): 0.847 ± 0.022 mPa·s | viscosity (318.15 K, 101 kPa, x1 = 0.48): 2.066 ± 0.079 mPa·s | viscosity (318.15 K, 101 kPa, x2 = 0.047): 1.423 ± 0.014 mPa·s | viscosity (318.15 K, 101 kPa, x2 = 0.089): 1.457 ± 0.015 mPa·s | viscosity (318.15 K, 101 kPa, x2 = 0.186): 1.553 ± 0.018 mPa·s | viscosity (318.15 K, 101 kPa, x2 = 0.522): 2.083 ± 0.036 mPa·s | viscosity (318.15 K, 101 kPa, x2 = 0.59): 2.164 ± 0.04 mPa·s | viscosity (318.15 K, 101.3 kPa, x1 = 0.012): 0.654 ± 0.017 mPa·s | viscosity (318.15 K, 101.3 kPa, x2 = 0.5203): 2.065 ± 0.054 mPa·s | viscosity (318.15 K, 101.3 kPa, x2 = 0.743): 1.976 ± 0.051 mPa·s | viscosity (318.15 K, 101.3 kPa, x2 = 0.8183): 1.637 ± 0.043 mPa·s | viscosity (318.15 K, 101.3 kPa, x2 = 0.8668): 1.348 ± 0.035 mPa·s | viscosity (318.15 K, 101.3 kPa, x2 = 0.9101): 1.09 ± 0.028 mPa·s | viscosity (318.15 K, 101.3 kPa, x2 = 0.9455): 0.884 ± 0.023 mPa·s | viscosity (318.15 K, 101.3 kPa, x2 = 0.9751): 0.722 ± 0.019 mPa·s | viscosity (323.15 K, 101 kPa, x1 = 0.01869): 0.62 ± 0.19 mPa·s | viscosity (323.15 K, 101 kPa, x1 = 0.0406): 0.71 ± 0.21 mPa·s | viscosity (323.15 K, 101.3 kPa, x1 = 0.012): 0.6 ± 0.016 mPa·s | viscosity (323.15 K, 101.3 kPa, x2 = 0.1906): 1.428 ± 0.037 mPa·s | viscosity (323.15 K, 101.3 kPa, x2 = 0.3252): 1.577 ± 0.041 mPa·s | viscosity (323.15 K, 101.3 kPa, x2 = 0.5203): 1.853 ± 0.048 mPa·s | viscosity (323.15 K, 101.3 kPa, x2 = 0.6501): 1.931 ± 0.05 mPa·s | viscosity (323.15 K, 101.3 kPa, x2 = 0.743): 1.754 ± 0.046 mPa·s | viscosity (323.15 K, 101.3 kPa, x2 = 0.8183): 1.46 ± 0.038 mPa·s | viscosity (323.15 K, 101.3 kPa, x2 = 0.8668): 1.211 ± 0.032 mPa·s | viscosity (323.15 K, 101.3 kPa, x2 = 0.9101): 0.985 ± 0.026 mPa·s | viscosity (323.15 K, 101.3 kPa, x2 = 0.9455): 0.805 ± 0.021 mPa·s | viscosity (323.15 K, 101.3 kPa, x2 = 0.9751): 0.66 ± 0.017 mPa·s

Source: the CheMixHub viscosity set
